Results taken from PMC11674305, “Inhibition of Neural Crest Cell Migration by Strobilurin Fungicides and Other Mitochondrial Toxicants” (Cells, 2024).

What was measured:
complex II (cII) = experiment: Electron transport chain complex activity in permeabilized NCC (Seahorse); type: cell-based, human; settings: 60 μM, due to block of cIII
From the text: (§1) Magel et al. (2024): Inhibition of neural crest cells migration by strobilurin fungicides
(§2) Figure S9. Inhibition of electron transport chain complexes by picoxystrobin in neural crest […]
(§3) NCC were exposed to the BMC10(V) of the cMINC assay (60 μ M). The grey area indicates th e non-significant range of the assay (≤ 25% change). The effect on complex IV (cIV) was non-significant (green bar). The purple bar indicates complex III (cIII) inhibition. Yellow bars […]
(§4) that for these assays, the electrons have to pass cIII to reach cIV (oxygen consumption), i.e. electrons from cI (or cII) cannot be used for the reduction of oxygen, as they need to flow through cIII (which is blocked). The pattern of inhibition is indicative of cIII as illustrated earlier (Delp et al., 2019; van der Stel et al., 2020).
(§5) To investigate the inhibition pattern of picoxystrobin, NCC were permeabilized and complex-specific substrates and inhibitors were sequentially injected as described earlier (Delp et al., 2019). In detail, cells were permeabilized with MAS buffer (220 mM mannitol, 1 mM ADP, 70 mM sucrose, 10 mM KH2PO4, 5 mM MgCl2, 2 mM HEPES, 1 mM EGTA, 4 mg/ml fatty acid-free BSA, pH = 7.2) supplemented with 25 μ g/mL digitonin. Seahorse measurements were started directly afterwards, and basal OCRs were assessed for internal normalization. Then picoxystrobin was injected and cI activity was assessed. For this, cII was inhibited (5 mM malonat) and substrates for cI (2 mM […], 2.5 mM malic acid, 5 mM pyruvic acid) […]
(§6) were added. […] Next, cI was […]
(§7) inhibited (0.5 μ M rotenone) and substrates of cIII (250 μM duroquinol ) were added. At this step, cIII inhibition data for cIII were obtained. In the case of a cI inhibition (e.g. by rotenone), […]
(§8) To assess cII activity, cI was inhibited and the substrate of cII (10 mM succinic acid) was added.
(§9) Lastly, to assess cIV activity, cII was inhibited and the substrates of cIV (125 μ M TMPD, 2 mM ascorbic acid) were added. Data were compared to the solvent control. Details and assay validation have been provided earlier (Delp et al., 2019; van der Stel et al., 2020). […]

complex IV (cIV) = experiment: as above; type: cell-based, human; settings: 60 μM (BMC10(V) of cMINC)
From the text: as §1, §2, §3, §4, §5, §6, §7, §8, §9

complex I (cI) = experiment: as above; type: cell-based, human; settings: 60 μM, due to block of cIII
From the text: as §1, §2, §3, §4, §5, §6, §7, §8, §9

[1] = parameters: species or system human
Procedure: Figure 8 Consideration of biokinetics for refined hazard (potency) estimates. (A) Concentration–response curve of the oxygen consumption rate (OCR) in NCCs cultured in galactose medium after a 24 h treatment with picoxystrobin. The highest tested concentration was 2.8 µM (highest non-cytotoxic exposure). Data are shown for two independent experiments (as in Figure 7B). (B) The cMINC assay was performed as in Figure 1, but the NCCs were cultured in galactose medium. The insert box gives picoxystrobin potency data for migration (M) and cytotoxicity (V), and their ratio. Data are expressed as means ± SEM from seven independent experiments. (C) Schematic illustration of the distribution of picoxystrobin in a cell culture well according to the in silico biokinetics prediction model. Data for each compartment are given either as percentage (left) or as concentrations (right) for a nominal concentration of 1 µM. (D) Tabular overview of the distribution of picoxystrobin in the different compartments at a nominal concentration of 1 µM. Mediumt: total medium; Mediumb: bound in medium; Mediumu: unbound in medium; Cellst: total amount in cells; CellsM: mitochondrial compartment; CellsL: lysosomal compartment; CellsR: “rest” of the cells. […] (E) Synoptic overview of predicted and measured concentrations of picoxystrobin. […]

complex III (cIII) = biological target: T1, complex III (cIII) (Homo sapiens, UniProt P00156); experiment: Electron transport chain complex activity in permeabilized NCC (Seahorse); type: cell-based; settings: 60 μM (BMC10(V) of cMINC)
T1 construct: endogenous in cells; host or cells: neural crest cells (NCC), digitonin-permeabilized
From the text: as §1, §2, §3, §4
To investigate the inhibition pattern of picoxystrobin, NCC were permeabilized and complex-specific substrates and inhibitors were sequentially injected as described earlier (Delp et al., 2019). In detail, cells were permeabilized with MAS buffer (220 mM mannitol, 1 mM ADP, 70 mM sucrose, 10 mM KH2PO4, 5 mM MgCl2, 2 mM HEPES, 1 mM EGTA, 4 mg/ml fatty acid-free BSA, pH = 7.2) supplemented with 25 μ g/mL digitonin. Seahorse measurements were started directly afterwards, and basal OCRs were assessed for internal normalization. Then picoxystrobin was injected and cI activity was assessed. […]

Question: What does the source list for CO/C=C(/C(=O)OC)c1ccccc1COc1cccc(C(F)(F)F)n1 [Picoxystrobin, picoxystrobin]?
Answer: effect on complex II (cII) (complex II (cII)): apparent inhibition; effect on complex IV (cIV) (complex IV (cIV)): non-; effect on complex I (cI) (complex I (cI)): apparent inhibition; MoE for fetus (nominal data) [1]: 2-100 fold; effect on complex III (cIII) (complex III (cIII)): inhibition of complex III
